Data from patent publication US9902696B2, “1,4-substituted piperidine derivatives” (Cephalon, Inc., priority 2015, dated 2018).
Structures can show the parent of a compound that is named as a salt.

The molecules below were run against T1, recombinant human baculovirus-expressed GST-tagged FASN (Homo sapiens, UniProt P49327) (assay: FASN enzyme activity assay, fluorescence-based detection of CoA with CPM). Details: 5 nM FASN, 150 μM NADPH, 10 μM acetyl-CoA, 25 μM malonyl-CoA, 90 minutes incubation; read-out: IC50 data for Additional Compounds of Formulae I-V(a): Activity.
T1 construct: GST
T1 sequence (P49327 whole entry): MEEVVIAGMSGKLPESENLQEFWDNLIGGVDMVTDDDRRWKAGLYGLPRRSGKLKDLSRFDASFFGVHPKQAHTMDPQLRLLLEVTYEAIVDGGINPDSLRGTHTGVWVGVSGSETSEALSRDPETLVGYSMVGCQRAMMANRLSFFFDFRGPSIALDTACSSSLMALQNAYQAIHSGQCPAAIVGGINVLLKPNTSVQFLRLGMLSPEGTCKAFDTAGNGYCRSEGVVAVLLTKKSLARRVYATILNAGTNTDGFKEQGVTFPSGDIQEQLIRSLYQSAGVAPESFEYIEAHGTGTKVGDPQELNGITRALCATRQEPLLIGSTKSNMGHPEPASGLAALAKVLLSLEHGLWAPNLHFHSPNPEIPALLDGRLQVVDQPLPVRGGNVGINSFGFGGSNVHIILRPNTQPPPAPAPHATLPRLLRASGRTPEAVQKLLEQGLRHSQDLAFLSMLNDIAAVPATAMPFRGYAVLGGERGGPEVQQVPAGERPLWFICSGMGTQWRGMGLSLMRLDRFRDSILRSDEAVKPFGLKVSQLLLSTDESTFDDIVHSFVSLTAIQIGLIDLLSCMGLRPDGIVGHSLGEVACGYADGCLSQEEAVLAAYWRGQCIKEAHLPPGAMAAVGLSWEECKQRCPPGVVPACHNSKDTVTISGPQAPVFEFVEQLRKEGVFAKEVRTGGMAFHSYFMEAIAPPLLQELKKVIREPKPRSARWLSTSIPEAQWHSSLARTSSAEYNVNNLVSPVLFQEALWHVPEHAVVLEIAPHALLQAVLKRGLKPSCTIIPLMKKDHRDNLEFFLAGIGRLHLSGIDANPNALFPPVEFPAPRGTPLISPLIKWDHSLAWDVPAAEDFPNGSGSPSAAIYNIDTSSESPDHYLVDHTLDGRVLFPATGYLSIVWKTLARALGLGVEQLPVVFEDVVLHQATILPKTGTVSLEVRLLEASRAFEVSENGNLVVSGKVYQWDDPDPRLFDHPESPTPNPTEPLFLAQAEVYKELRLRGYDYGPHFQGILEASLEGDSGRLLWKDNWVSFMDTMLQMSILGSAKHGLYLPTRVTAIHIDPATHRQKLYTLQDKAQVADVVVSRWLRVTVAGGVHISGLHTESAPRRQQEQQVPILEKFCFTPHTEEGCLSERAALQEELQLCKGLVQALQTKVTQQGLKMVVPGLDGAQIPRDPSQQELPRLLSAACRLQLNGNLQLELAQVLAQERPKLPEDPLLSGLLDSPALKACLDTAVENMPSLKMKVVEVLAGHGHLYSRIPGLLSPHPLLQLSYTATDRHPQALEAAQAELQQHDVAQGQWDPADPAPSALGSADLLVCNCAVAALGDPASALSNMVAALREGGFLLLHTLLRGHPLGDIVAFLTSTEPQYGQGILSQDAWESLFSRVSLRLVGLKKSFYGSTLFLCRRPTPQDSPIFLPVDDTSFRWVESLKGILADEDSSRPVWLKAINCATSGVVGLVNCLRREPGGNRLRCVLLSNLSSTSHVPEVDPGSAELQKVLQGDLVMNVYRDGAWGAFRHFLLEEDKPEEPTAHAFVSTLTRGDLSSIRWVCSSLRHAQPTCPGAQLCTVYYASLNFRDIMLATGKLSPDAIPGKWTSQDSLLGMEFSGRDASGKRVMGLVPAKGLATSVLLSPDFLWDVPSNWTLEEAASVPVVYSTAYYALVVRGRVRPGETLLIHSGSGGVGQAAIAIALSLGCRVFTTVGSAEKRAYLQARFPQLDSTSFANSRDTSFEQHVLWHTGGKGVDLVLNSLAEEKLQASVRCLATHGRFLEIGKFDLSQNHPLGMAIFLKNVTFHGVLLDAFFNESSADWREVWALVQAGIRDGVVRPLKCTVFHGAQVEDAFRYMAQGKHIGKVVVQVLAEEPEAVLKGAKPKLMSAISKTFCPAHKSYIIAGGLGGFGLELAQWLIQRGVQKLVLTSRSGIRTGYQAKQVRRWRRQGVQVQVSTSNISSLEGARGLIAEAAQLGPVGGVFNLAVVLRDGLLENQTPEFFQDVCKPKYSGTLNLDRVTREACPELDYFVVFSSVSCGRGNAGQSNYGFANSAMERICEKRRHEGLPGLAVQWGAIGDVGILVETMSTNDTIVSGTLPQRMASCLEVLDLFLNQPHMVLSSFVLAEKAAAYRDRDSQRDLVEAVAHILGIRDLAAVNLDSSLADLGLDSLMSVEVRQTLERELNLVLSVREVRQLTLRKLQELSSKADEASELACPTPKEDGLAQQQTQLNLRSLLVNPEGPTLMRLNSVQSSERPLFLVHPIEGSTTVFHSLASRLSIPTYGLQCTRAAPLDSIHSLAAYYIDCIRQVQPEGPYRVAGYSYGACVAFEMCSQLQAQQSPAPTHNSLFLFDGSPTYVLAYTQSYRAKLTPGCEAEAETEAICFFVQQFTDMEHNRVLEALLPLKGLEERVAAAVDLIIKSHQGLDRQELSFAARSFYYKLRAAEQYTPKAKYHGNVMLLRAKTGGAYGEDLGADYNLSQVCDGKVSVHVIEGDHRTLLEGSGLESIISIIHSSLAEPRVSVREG
Format: biochemical
Excerpt: FASN Enzyme activity may be determined by detecting coenzyme A (CoA), a product of FASN-catalyzed synthesis of palmitate from acetyl-CoA and malonyl-CoA with NADPH as a cofactor. The assay is fluorescence-based and measures the interaction of free CoA with 7-diethylamino-3-(4′-malemimidylphenyl)-4-methylcoumarin (CPM; Life Technologies, CA) as described in Chung et al (2008). The coumarin derivative CPM contains a thiol-reactive maleimide that becomes fluorescent upon interaction with the sulfhydryl group of CoA.
For the example compounds described herein, the reaction was performed in 384-well low volume non-binding plates (Corning, N.Y.) using recombinant human baculovirus-expressed GST-tagged FASN. The 20-μL assay mixture contained 50 mM HEPES (pH 7.5), 5 nM FASN, 150 μM NADPH (Sigma, St. Louis, Mo.), 10 μM acetyl-CoA (Sigma), 25 μM malonyl-CoA (Sigma) and test compound [diluted in dimethyl sulfoxide (DMSO); 0.5% DMSO final in assay after 100 nL addition]. See, Chung et al.; “A fluorescence-based thiol quantification assay for ultra-high-throughput screening for inhibitors of coenzyme A production,” Assay Drug Dev Tech 2008; 6:361-374.
The reaction was initiated by adding malonyl-CoA, followed by incubation for 90 minutes at […]. A stock solution of the CPM reagent was prepared in DMSO at […] and stored at […]. To detect CoA produced in the FASN reaction, the CPM stock was diluted to […] in 70% ethanol and added at 4 μL/well to the assay plate. The reaction mixture was then incubated for 30 minutes. Fluorescence was measured using the EnVision™ 2102 multi-label plate reader (PerkinElmer, Waltham, Mass.) utilizing a general dual mirror, a 390 nm excitation filter and a 530 nm emission filter. Data analysis was performed using ActivityBase (IDBS, Guilford, UK). IC50 values were calculated by plotting the percent inhibition versus log 10 of the concentration of the compound, and fitting to the nonlinear regression sigmoidal dose-response (variable slope) equation in XLFit (IDBS).

Row | SMILES | IC50
1 | Cc1c(-c2ccc(OC3CCN(C(=O)NC4CCC4)CC3)cc2)ccc2cccnc12 [Example 552, N-Cyclobutyl-4-[4-(8-methyl-7-quinolyl)phenoxy]piperidine-1-carboxamide HCl] | 1000 to 10000 nM
2 | Cc1c(-c2ccc(OC3CCN(C(=O)NO)CC3)cc2)ccc2nccn12 [Example 613, 4-[4-(5-Methylimidazo[1,2-a]pyridin-6-yl)phenoxy]piperidine-1-carbohydroxamic acid] | 1000 to 10000 nM
3 | Cc1c(-c2ccc(OC3CCN(C(=O)NCC(C)C)CC3)cc2)ccc2nccn12 [Example 593, N-Isobutyl-4-[4-(5-methylimidazo[1,2-a]pyridin-6-yl)phenoxy]piperidine-1-carboxamide] | 1000 to 10000 nM
4 | CCNC(=O)N1CCC(Oc2ccc(-c3ccc4nccn4c3C)cc2)CC1 [Example 592, N-Ethyl-4-[4-(5-methylimidazo[1,2-a]pyridin-6-yl)phenoxy]piperidine-1-carboxamide] | 1 to 99 nM
5 | Cc1c(-c2ccc(OC3CCN(C(=O)OCC4CC4)CC3)cc2)ccc2cccnc12 [Example 553, Cyclopropylmethyl 4-[4-(8-methyl-7-quinolyl)phenoxy]piperidine-1-carboxylate HCl] | 1000 to 10000 nM

Same assay, conditions: 5 nM FASN, 150 μM NADPH, 10 μM acetyl-CoA, 25 μM malonyl-CoA, 90 minutes incubation; read-out: IC50 data for Compounds of Formulae I-V/V(a): Activity

Row | SMILES | IC50
6 | O=C(C1CC1)N1CCC(Oc2ccc(-c3ccc4cccnc4c3F)cc2)CC1 [Example 23, Cyclopropyl-{4-[4-(8-fluoroquinolin-7-yl)-phenoxy]-piperidin-1-yl}-methanone] | 1 to 99 nM
7 | Cc1ccc2cc(-c3ccc(OC4CCN(C(=O)C5CC5)CC4)cc3)cnc2c1 [Example 64, Cyclopropyl-{4-[4-(7-methylquinolin-3-yl)-phenoxy]-piperidin-1-yl}-methanone] | 100 to 999 nM
8 | O=C(C1CC1)N1CCC(Oc2ccc(-c3ccc(Cl)c(Cl)c3)cc2)CC1 [Example 501, Cyclopropyl-[4-(3′,4′-dichlorobiphenyl-4-yloxy)-piperidin-1-yl]-methanone] | 1000 to 10000 nM
9 | CCC(=O)N1CCC(Oc2ccc(-c3ccc4cnc(OC)cc4c3)cc2)CC1 [Example 415, 1-{4-[4-(3-Methoxyisoquinolin-6-yl)-phenoxy]-piperidin-1-yl}-propan-1-one] | 1000 to 10000 nM
10 | CNc1nccc2cc(-c3ccc(OC4CCN(C(=O)[C@H]5CCCO5)CC4)cc3)ccc12 [Example 456, {4-[4-(1-Methylaminoisoquinolin-6-yl)-phenoxy]-piperidin-1-yl}-(R)-tetrahydrofuran-2-yl-methanone] | 1 to 99 nM
11 | O=C(C1CC1)N1CCC(Oc2ccc(-c3ccc4scnc4c3)cc2)CC1 [Example 268, [4-(4-Benzothiazol-5-yl-phenoxy)-piperidin-1-yl]-cyclopropylmethanone, TFA salt] | 1000 to 10000 nM
12 | CC(=O)N1CCC(Oc2ccc(-c3cnc4ccccc4c3)cc2)CC1 [Example 112, 1-[4-(4-Quinolin-3-yl-phenoxy)-piperidin-1-yl]-ethanone, HCl] | 100 to 999 nM
13 | O=C(C1CCC1)N1CCC(Oc2ccc(-c3cnc4cccc(F)c4c3)cc2)CC1 [Example 31, Cyclobutyl-{4-[4-(5-fluoroquinolin-3-yl)-phenoxy]-piperidin-1-yl}-methanone] | 1 to 99 nM
14 | O=C([C@H]1CCCO1)N1CCC(Oc2ccc(-c3ccc4cccnc4c3OCCN3CCCC3)cc2)CC1 [Example 183] | 1000 to 10000 nM
15 | Cc1ccc2ncccc2c1-c1ccc(OC2CCN(C(=O)C3CCCO3)CC2)cc1 (stereo in doubt) [Example 354, (R)-(4-(4-(6-Methylquinolin-5-yl)phenoxy)piperidin-1-yl)(tetrahydrofuran-2-yl)methanone] | 1 to 99 nM
16 | CCC(=O)N1CC[C@H](Oc2ccc(-c3ccc4cccnc4c3C)cc2)[C@H](F)C1 (relative stereo) [Example 367, 1-{cis-3-Fluoro-4-[4-(8-methylquinolin-7-yl)-phenoxy]-piperidin-1-yl}-propan-1-one, HCl] | 1000 to 10000 nM
17 | Cc1c(-c2ccc(OC3CCN(C(=O)N4CCCO4)CC3)cc2)ccc2cccnc12 [Example 75, Isoxazolidin-2-yl-{4-[4-(8-methyl-quinolin-7-yl)-phenoxy]-piperidin-1-yl}-methanone] | 1 to 99 nM
18 | Cc1c(-c2ccc(OC3CCN(C(=O)C4CC4)CC3)cc2)cnc2ccccc12 [Example 61] | 1 to 99 nM
19 | O=C([C@H]1CCCO1)N1CCC(Oc2ccc(-c3cnc4ccccc4c3N3CCOCC3)cc2)CC1 [Example 238, {4-[4-(4-Morpholin-4-yl-quinolin-3-yl)-phenoxy]-piperidin-1-yl}-(R)-tetrahydrofuran-2-yl-methanone] | 100 to 999 nM
20 | O=C([C@H]1CCCO1)N1CCC(Oc2ccc(-c3ccc4cc(Cl)cnc4c3)cc2)CC1 [Example 265, {4-[4-(3-Chloroquinolin-7-yl)-phenoxy]-piperidin-1-yl}-(R)-tetrahydro-furan-2-yl-methanone, TFA salt] | 1 to 99 nM
21 | COCCCOc1c(-c2ccc(OC3CCN(C(=O)[C@H]4CCCO4)CC3)cc2)ccc2cccnc12 [Example 187, [4-[4-[8-(3-Methoxypropoxy)-7-quinolyl]phenoxy]-1-piperidyl]-[(2R)-tetrahydrofuran-2-yl]methanone, HCl] | 1 to 99 nM
22 | CCC(=O)N1CCC(Oc2ccc(-c3cnc4ccsc4c3)cc2)CC1 [Example 264, 1-[4-(4-Thieno[3,2-b]pyridin-6-yl-phenoxy)-piperidin-1-yl]-propan-1-one, TFA salt] | 1000 to 10000 nM
23 | Cc1c(-c2ccc(OC3CCN(C(=O)C(C)(C)O)CC3)cc2)ccc2nccn12 [Example 310, 2-Hydroxy-2-methyl-1-{4-[4-(5-methyl-imidazo[1,2-a]pyridin-6-yl)-phenoxy]-piperidin-1-yl}-propan-1-one] | 1000 to 10000 nM
24 | Cc1c(-c2ccc(OC3CCN(C(=O)[C@@H]4CCCO4)CC3)cc2)ccc2cccnc12 [Example 70, {4-[4-(8-Methylquinolin-7-yl)-phenoxy]-piperidin-1-yl}-(S)-tetrahydro-furan-2-yl-methanone] | 1 to 99 nM
25 | CCC(=O)N1CCC(Oc2ccc(-c3cnc4ccccc4c3)cc2)CC1 [Example 2, 1-[4-(4-Quinolin-3-yl-phenoxy)-piperidin-1-yl]-propan-1-one] | 1 to 99 nM
26 | CCC(=O)N1CCC(Oc2ccc(-c3cnc4ccccc4c3N3CCOCC3)cc2)CC1 [Example 237, 1-{4-[4-(4-Morpholin-4-yl-quinolin-3-yl)-phenoxy]-piperidin-1-yl}-propan-1-one] | 1000 to 10000 nM
27 | CCC(=O)N1CCC(Oc2ccc(-c3ccc4cnn(C)c4c3)cc2)CC1 [Example 249, 1-{4-[4-(1-Methyl-1H-indazol-6-yl)-phenoxy]-piperidin-1-yl}-propan-1-one, TFA salt] | 100 to 999 nM
28 | CONC(=O)N1CCC(Oc2ccc(-c3ccc4cccnc4c3OC)cc2)CC1 [Example 131, N-Methoxy-4-[4-(8-methoxy-7-quinolyl)phenoxy]piperidine-1-carboxamide, HCl] | 1 to 99 nM
29 | CCC(=O)N1CCC(Oc2ccc(-c3ccc4nccn4c3)cc2)CC1 [Example 256, 1-[4-(4-Imidazo[1,2-a]pyridin-6-yl-phenoxy)-piperidin-1-yl]-propan-1-one, TFA salt] | 100 to 999 nM
30 | CCC(=O)N1CCC(Oc2ccc(-c3cncc(Nc4ccccc4)c3)cc2)CC1 [Example 401, 1-{4-[4-(5-Phenylaminopyridin-3-yl)-phenoxy]-piperidin-1-yl}-propan-1-one, TFA salt] | 1000 to 10000 nM
31 | CCNC(=O)N1CCC(Oc2ccc(-c3cnc4ccccc4c3C)cc2)CC1 [Example 84, 4-[4-(4-Methylquinolin-3-yl)-phenoxy]-piperidine-1-carboxylic acid ethylamide] | 1 to 99 nM
32 | CCC(=O)N1CCC(Oc2ccc(-c3cnc4ccccc4c3NC)cc2)CC1 [Example 235, 1-{4-[4-(4-Methylaminoquinolin-3-yl)-phenoxy]-piperidin-1-yl}-propan-1-one] | 1000 to 10000 nM
33 | CCC(=O)N1CCC(Oc2ccc(-c3cc(F)cc(OCc4ccccc4)c3)cc2)CC1 [Example 506, 1-[4-(5′-Benzyloxy-3′-fluorobiphenyl-4-yloxy)-piperidin-1-yl]-propan-1-one] | 1000 to 10000 nM
34 | COC(=O)N1CCC(Oc2ccc(-c3cnc4ccccc4c3)cc2F)CC1 [Example 15, 4-(2-Fluoro-4-quinolin-3-yl-phenoxy)-piperidine-1-carboxylic acid methyl ester] | 1000 to 10000 nM
35 | O=C([C@H]1CCCO1)N1CCC(Oc2ccc(-c3cnc4ccsc4c3)cc2)CC1 [Example 263, (R)-Tetrahydrofuran-2-yl-[4-(4-thieno[3,2-b]pyridin-6-yl-phenoxy)-piperidin-1-yl]-methanone, TFA salt] | 1 to 99 nM
